What was measured:
murine islets = assay: Murine islets ex vivo: ER stress, gene expression, insulin and proinsulin secretion; assay type: cell-based, mice
Procedure: Healthy islets were cultured with 10 μg/mL tunicamycin or 5 μM thapsigargin±IL-22 for 6 hours. Alternatively the islets were cultured in the presence of ER stress-inducing cytokines±IL-22 for 24 hours. The cultures were then cultured consecutively for 30 minutes in 2.8 mM glucose, 20 mM glucose, or a combination of 20 mM glucose and 100 nM GLP-1.
(§1) All mice were housed in sterilized, filter-topped cages in a conventional clean facility. Six to eight week old C57BL/6 male mice were fed ad libitum on a high fat diet containing 46% of available energy as saturated fat, 34% carbohydrate, 20% protein (Speciality feeds, SF04-027). Or on normal chow containing less than 10% saturated fat (GOLDMIX, 126575). Cages of mice were randomly allocated to the experimental groups by random draw. Investigators were not blinded to treatment by there were no subjective assessments made.
(§2) Total insulin and proinsulin were measured in supernatant from islet cultures or in serum from mice using commercially obtained ELISA kits from MILLIPORE and MERCODIA, respectively. The molar insulin concentration was determined by subtracting the molar proinsulin concentration from molar total insulin, and then the serum proinsulin:insulin ratio was calculated.

Murine MIN6N8 cells = assay: ERAI-sXBP1 reporter ER stress in MIN6N8 cells with 0.5 mM palmitate; assay type: cell-based; conditions: 15.4 nM, 24 hours, no palmitate
Procedure: (§3) Cell culture: Murine MIN6N8 cells were tested negative for mycoplasma. Cells were routinely cultured in phenol-red free DMEM (Life Technologies) containing 25 mM glucose (3.4 g/L sodium bicarbonate, 50 U/mL penicillin and streptomycin, 71.5 μM β-mercaptoethanol and 10% heat inactivated fetal bovine serum) and transferred to DMEM as above with 5.5 mM glucose 48 h prior to experimentation. Human LS174T cells were cultured in DMEM containing 10% heat-inactivated fetal bovine serum, 50 U mL^−1 penicillin and streptomycin.
ER Stress Measurement: MIN6N8 cells were transfected with the ERAI reporter plasmid (F-XBP1ΔDBD-venus, using Lipofectamine 2000 according to the manufacturer's instructions. For ERAI there was negligible fluorescence in the absence of ER stressors, but upon induction of ER stress, splicing of XBP1 mRNA by IRE1a results in the translation of Venus but not an active form of XBP1. Fluorescence was measured (excitation: 485 nm; emission: 520 nm) using a POLARstar Omega plate reader and cells were treated 48 h after transfection. […] After 24 h, ERAI-sXBP1 GFP reporter fluorescence was measured.

[1] = test system: mice with high fat diet-induced obesity (HFDIO); assay: HFDIO Experiment 1: high fat diet induced obesity, treated last 3 weeks of 16; assay type: in vivo, C57BL/6 male mice
From the text: as §1, §2
From […] of the diet, mice were treated with 20 ng/g i.p. recombinant murine IL-22 twice weekly (R&D SYSTEMS), 3 μg/g anti-IL-23 weekly (ELI-LILLY), 0.1 mg/mouse anti-IL-24 weekly (PROTEIN TECH), or 0.5 mg/mouse irrelevant isotype control antibody, sacrificed and sampled.
Fasted i.p. glucose tolerance tests (2 g/kg glucose) and insulin tolerance tests (0.25 U/kg insulin; Humalog, Lilly) were performed at the times indicated in the Figure Legends.
Pancreatic tissue was fixed in 10% neutral buffered formalin and processed using standard histological techniques. Standard immunohistochemical and immunofluorescent staining methods were used to determine the presence of Grp78, insulin, glucagon, IL-22R1, proinsulin and ATF6-GFP.
The area in pixels/mm^2 was determined for Grp78 and insulin (immunofluorescence) and proinsulin (immunohistochemisty) in the core of β-cell rich area of 3-4 islets per mouse (n=6-10 mice) using IMAGEJ software version 1.45s. Live cell imagine in MIN6N8 cells was carries out at 37° C. in 5% CO2 in a chamber using an OLYMPUS XCELLENCE RT microscope.

MIN6N8 cells = assay: Oxidative stress gene expression (RT2 Profiler PCR array, qRT-PCR) in MIN6N8 cells; assay type: cell-based, murine; conditions: non-stressed β-cells, 50 ng/mL
Procedure: Tissue samples were snap-frozen, and homogenized in TRIZOL using FASTPREP (MP BIOMEDICAL). RNA was isolated using High Pure RNA isolation kit (ROCHE), followed by cDNA synthesis using iScript (BIORAD) containing oligo(dT) and random hexamers. QPCR SYBR Green (INVITROGEN) was used for quantitative PCR using a HT7900 (ABI SYSTEMS). RoX was used as a normalization reference. Results were analyzed using SDS software (version 2.3) (ABI SYSTEMS). Primer efficiencies were determined using cDNA dilutions and primer dilutions for the genes of interest. All the data was normalized against the housekeeping gene, Gapdh, and expressed as a fold difference to the mean of relevant control samples.
cDNA from MIN6N8 cells treated with DMSO or 50 ng/mL IL-22 was compared using the oxidative stress RT^2 Profiler PCR Array (QIAGEN, PAMM-065Z). Data were analyzed using RT^2 Profiler PCR Array data analysis software.
Experiments to assess ER and/or oxidative stress, and methods of qRT-PCT and/or quantifying gene expression were performed as described for Example 1. Xbp1 splicing is assessed by qRT-PCR, with normalization versus Gapdh, and expression presented as fold of vehicle-treated control cells.

Human LS174T cells = assay: Oxidative stress (nitrite, Griess assay) in LS174T cells with 0.5 mM palmitate; assay type: cell-based; conditions: human LS174T cells, 0.5 mM palmitate
Procedure: as §3
The Griess Reagent Kit for Nitrite Determination was performed according to the manufacturer's instructions (Molecular Probes) to assess the intracellular levels of nitrite (the stable metabolite of nitric oxide) using lysates of β-cells prepared in RIPA buffer (150 mM NaCl, 1% NP40, 0.5% sodium deoxycholate, 0.1% SDS, 50 mM Tris, pH 7.5).

[2] = healthy islets, co-treatment with ER stress agents
[3] = HFDIO Experiment 1, 16 weeks on HFD
[4] = HFDIO Experiment 1, 16 weeks on NCD

## IL-22: interleukin-22; recombinant murine IL-22 (R&D SYSTEMS) in the mouse experiments
Murine islets; HFDIO islets cultured 24 h in 2.8 mM glucose ± 50 ng/mL IL-22
  MIP2α mRNA: reduced substantially
Murine islets; [2]
  acute islet ER stress (Xbp1-splicing, Hspa5 mRNA): suppresses the acute islet oxidative stress-driven ER stress
  glucose and glucose plus GLP-1 stimulated insulin secretion: restores appropriate glucose and glucose plus GLP-1 stimulated insulin secretion
Murine islets; islets from HFDIO mice
  proinsulin secretion: proinsulin secretion ceased
Murine islets; islets from HFDIO mice, after culture
  insulin hyper-secretion (GSIS): returned to levels in non-obese islets
Murine islets; islets from HFDIO mice, culture 24 hours
  ER stress, antioxidant gene expression and Nos2: reduced ER stress, increased antioxidant gene expression and decreased Nos2
Murine MIN6N8 cells
  ER stress caused by the protein alone: did not cause ER stress
[1]; HFD
  body weight during treatment: progressively lost weight during treatment without changing food consumption
[1]; HFD, after 3 weeks treatment
  hepatic Hspa5 mRNA: decreased substantially
[1]; HFD, end of treatment
  fasted serum proinsulin:insulin ratio: decreased the fasted serum proinsulin:insulin ratio
[1]; HFD, fasted, end of treatment
  reduction of serum proinsulin: 92%
[1]; HFD, immunostaining
  decrease of islet proinsulin: 64%
  reduction of Grp78 in the β-cell region of islets: 75%
  β-cell insulin stores: returned to levels in non-obese mice
[1]; HFD, two weeks of treatment
  reduction of the increase in IPGTT area under the curve (AUC glucose): 82%
[1]; [3]
  Body weight (% original): 129 ± 9 % original
  Fasting blood glucose: 8.8 ± 0.9 mmol/L
  Fasting serum insulin concentration: 1.1 ± 0.5 ng/mL
  Fasting serum proinsulin concentration: 9.5 ± 3.8 pmol/L
[1]; [4]
  Body weight (% original): 118 ± 3 % original
  Fasting blood glucose: 8.9 ± 0.8 mmol/L
  Fasting serum insulin concentration: 0.5 ± 0.1 ng/mL
  Fasting serum proinsulin concentration: Not detectable
MIN6N8 cells
  expression of antioxidant genes Gpx5, Prdx5, Sod2 (also Ptgs1, Ptgs2, Cyba): upregulated the antioxidant genes
  expression of oxidative stress inducing genes Nos2, Hsp90ab1, Fth1: down-regulates three key oxidative stress inducing genes
Human LS174T cells
  fold higher concentrations required for the same effect as human recombinant IL-22 in suppressing oxidative stress (nitrite): ~64 fold

Reference: patent US10695406B2, “Modulation of cellular stress using a B-cell oxidative and/or endoplasmic reticulum stress inhibitor and a targeting agent” (THE UNIVERSITY OF QUEENSLAND, priority 2014, dated 2020)
